Reference: PubChem BioAssay AID1918936 (Molecular Pharmacology Branch, DTP, NCI, 2023)
pIC50: −log10 of the molar value.

Tested on: 349418-098-R-PDC complex spheroid viability
Experiment: Anticancer human tumor 349418-098-R-PDC patient-derived lung adenocarcinoma cell line growth inhibition
Details: for pIC50: curve of first compound; for viability, T/C: stronger effect = lower value
Method in brief: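 Multicellular complex spheroids of tumor cells with human endothelial cells (HUVEC) and mesenchymal stem cells; the LSD1 inhibitor iadademstat was combined with standard-of-care or investigational agents. Top concentration at or near clinical Cmax, half-log dilutions; final DMSO ≤0.25%.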

[1] = second compound 0.1 µM, first compound 0.00316 µM
[2] = second compound 0.1 µM, first compound 0.01 µM
[3] = second compound 0.1 µM, first compound 0.0316 µM
[4] = second compound 0.1 µM, first compound 0.1 µM
[5] = second compound 0.316 µM, first compound 0.00316 µM
[6] = second compound 0.316 µM, first compound 0.01 µM
[7] = second compound 0.316 µM, first compound 0.0316 µM
[8] = second compound 0.316 µM, first compound 0.1 µM
[9] = second compound 1 µM, first compound 0.00316 µM
[10] = second compound 1 µM, first compound 0.01 µM
[11] = second compound 1 µM, first compound 0.0316 µM
[12] = second compound 1 µM, first compound 0.1 µM
[13] = second compound 3.16 µM, first compound 0.00316 µM
[14] = second compound 3.16 µM, first compound 0.01 µM
[15] = second compound 3.16 µM, first compound 0.0316 µM
[16] = second compound 3.16 µM, first compound 0.1 µM
[17] = second compound 10 µM, first compound 0.00316 µM
[18] = second compound 10 µM, first compound 0.01 µM
[19] = second compound 10 µM, first compound 0.0316 µM
[20] = second compound 10 µM, first compound 0.1 µM
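Note: spheroids exposed to agents for seven days before readout.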
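Throughout, for viability, T/C: 100% = DMSO vehicle control wells.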

COc1cc(Nc2ncc3c(n2)-c2ccc(Cl)cc2C(c2c(F)cccc2OC)=NC3)ccc1C(=O)O + NC1CCC(NC2CC2c2ccccc2)CC1
pIC50 (second compound 0.1 µM): 7.67
pIC50 (second compound 0.316 µM): 7.74
pIC50 (second compound 1 µM): 7.55
pIC50 (second compound 3.16 µM): 7.80
pIC50 (second compound 10 µM): 7.67
viability, T/C [1]: 99.2%
viability, T/C [2]: 64.7%
viability, T/C [3]: 41.8%
viability, T/C [4]: 38.5%
viability, T/C (second compound 0.1 µM, first compound 0.316 µM): 32.1%
viability, T/C (second compound 0.1 µM, first compound 1 µM): 37.4%
viability, T/C [5]: 87.3%
viability, T/C [6]: 63.1%
viability, T/C [7]: 37.7%
viability, T/C [8]: 38.9%
viability, T/C (second compound 0.316 µM, first compound 0.316 µM): 39.7%
viability, T/C (second compound 0.316 µM, first compound 1 µM): 32.5%
viability, T/C [9]: 85%
viability, T/C [10]: 62.8%
viability, T/C [11]: 43.6%
viability, T/C [12]: 47.3%
viability, T/C (second compound 1 µM, first compound 0.316 µM): 40.9%
viability, T/C (second compound 1 µM, first compound 1 µM): 34.5%
viability, T/C [13]: 99.5%
viability, T/C [14]: 58.9%
viability, T/C [15]: 35.6%
viability, T/C [16]: 40.4%
viability, T/C (second compound 3.16 µM, first compound 0.316 µM): 31.9%
viability, T/C (second compound 3.16 µM, first compound 1 µM): 37.7%
viability, T/C [17]: 75.3%
viability, T/C [18]: 54.2%
viability, T/C [19]: 48.2%
viability, T/C [20]: 41.6%
viability, T/C (second compound 10 µM, first compound 0.316 µM): 34%
viability, T/C (second compound 10 µM, first compound 1 µM): 34.7%

Cn1ncnc1C1c2n[nH]c(=O)c3cc(F)cc(c23)NC1c1ccc(F)cc1 (stereo not given) + NC1CCC(NC2CC2c2ccccc2)CC1
pIC50 (second compound 0.1 µM): < 7.00
pIC50 (second compound 0.316 µM): < 7.00
pIC50 (second compound 1 µM): < 7.00
pIC50 (second compound 3.16 µM): < 7.00
pIC50 (second compound 10 µM): < 7.00
viability, T/C (second compound 0.1 µM, first compound 0.000316 µM): 101%
viability, T/C (second compound 0.1 µM, first compound 0.001 µM): 96%
viability, T/C [1]: 94.8%
viability, T/C [2]: 95.3%
viability, T/C [3]: 106%
viability, T/C [4]: 92.5%
viability, T/C (second compound 0.316 µM, first compound 0.000316 µM): 108%
viability, T/C (second compound 0.316 µM, first compound 0.001 µM): 110%
viability, T/C [5]: 116%
viability, T/C [6]: 92.2%
viability, T/C [7]: 97.6%
viability, T/C [8]: 99.5%
viability, T/C (second compound 1 µM, first compound 0.000316 µM): 115%
viability, T/C (second compound 1 µM, first compound 0.001 µM): 112%
viability, T/C [9]: 96.8%
viability, T/C [10]: 112%
viability, T/C [11]: 111%
viability, T/C [12]: 87%
viability, T/C (second compound 3.16 µM, first compound 0.000316 µM): 107%
viability, T/C (second compound 3.16 µM, first compound 0.001 µM): 101%
viability, T/C [13]: 99.4%
viability, T/C [14]: 98.9%
viability, T/C [15]: 89.7%
viability, T/C [16]: 85.9%
viability, T/C (second compound 10 µM, first compound 0.000316 µM): 94.5%
viability, T/C (second compound 10 µM, first compound 0.001 µM): 91.2%
viability, T/C [17]: 94.6%
viability, T/C [18]: 86.8%
viability, T/C [19]: 83.7%
viability, T/C [20]: 87.3%

NS(=O)(=O)OCC1CC(n2ccc3c(NC4CCc5ccccc54)ncnc32)CC1O (stereo not given) + NC1CCC(NC2CC2c2ccccc2)CC1
pIC50 (second compound 0.1 µM): 7.17
pIC50 (second compound 0.316 µM): 7.06
pIC50 (second compound 1 µM): 7.03
pIC50 (second compound 3.16 µM): 7.08
pIC50 (second compound 10 µM): 7.18
viability, T/C (second compound 0.1 µM, first compound 0.00949 µM): 99.3%
viability, T/C (second compound 0.1 µM, first compound 0.03 µM): 94.8%
viability, T/C (second compound 0.1 µM, first compound 0.0949 µM): 30.6%
viability, T/C (second compound 0.1 µM, first compound 0.3 µM): 15.2%
viability, T/C (second compound 0.1 µM, first compound 0.949 µM): 8.16%
viability, T/C (second compound 0.1 µM, first compound 3 µM): 4.47%
viability, T/C (second compound 0.316 µM, first compound 0.00949 µM): 118%
viability, T/C (second compound 0.316 µM, first compound 0.03 µM): 100%
viability, T/C (second compound 0.316 µM, first compound 0.0949 µM): 44.5%
viability, T/C (second compound 0.316 µM, first compound 0.3 µM): 16.1%
viability, T/C (second compound 0.316 µM, first compound 0.949 µM): 7.56%
viability, T/C (second compound 0.316 µM, first compound 3 µM): 4.71%
viability, T/C (second compound 1 µM, first compound 0.00949 µM): 111%
viability, T/C (second compound 1 µM, first compound 0.03 µM): 104%
viability, T/C (second compound 1 µM, first compound 0.0949 µM): 47.1%
viability, T/C (second compound 1 µM, first compound 0.3 µM): 17.1%
viability, T/C (second compound 1 µM, first compound 0.949 µM): 6.19%
viability, T/C (second compound 1 µM, first compound 3 µM): 4.32%
viability, T/C (second compound 3.16 µM, first compound 0.00949 µM): 108%
viability, T/C (second compound 3.16 µM, first compound 0.03 µM): 103%
viability, T/C (second compound 3.16 µM, first compound 0.0949 µM): 40.6%
viability, T/C (second compound 3.16 µM, first compound 0.3 µM): 22.6%
viability, T/C (second compound 3.16 µM, first compound 0.949 µM): 7.16%
viability, T/C (second compound 3.16 µM, first compound 3 µM): 4.58%
viability, T/C (second compound 10 µM, first compound 0.00949 µM): 84.9%
viability, T/C (second compound 10 µM, first compound 0.03 µM): 88.7%
viability, T/C (second compound 10 µM, first compound 0.0949 µM): 33.6%
viability, T/C (second compound 10 µM, first compound 0.3 µM): 16.6%
viability, T/C (second compound 10 µM, first compound 0.949 µM): 6.64%
viability, T/C (second compound 10 µM, first compound 3 µM): 4.12%
